According to US20160022731A1, “[…] NITRIC OXIDE FOR TREATING RESPIRATORY DISEASES” (Advanced Inhalation Therapies (AIT) Ltd., priority 2013, published 2016):
Like-named read-outs stand apart in the source and are kept apart here.

What was measured:
S. aureus = S. aureus on agar; 50-160 ppm gNO, vs medical air; cited from earlier work
[1] = Phase I open label safety study of intermittent inhalation of 160 ppm gNO in healthy adults; format: in vivo, human
From the text: 10 healthy adult volunteer subjects (5 males, 5 females), aged 20 to 62 years, were enrolled in the study after screening their medical history, a physical examination, pulmonary function tests and blood values. Exclusion criteria included individuals less than 19 years of age, pregnant females and unwilling to practice birth control during the study, diagnosed with pulmonary disease, epistaxis, hemoptysis, methemoglobinemia, organ transplant recipient or receiving antibiotic therapy.
After obtaining informed consent, treatment was initiated within 5 days of enrollment. Subjects were housed in a hospital ward and received 160 ppm gNO for 30 minutes every four hours (Q4 h), five times a day, for five consecutive days by inhalation. Subjects returned for follow-up evaluations 3, 7 and 21 days after the final gNO administration. Subject safety was determined by monitoring vital signs, methemoglobin levels, lung function, blood chemistry, hematology, prothrombin time, inflammatory cytokine/chemokines levels and endothelial activation. These parameters were compared to baseline and at various time-points during and after gNO administration.
Subjects were administered gNO through a modified disposable mouthpiece to maximize mixing. Inspiration was spontaneously initiated by the subject from a conventional intermittent positive pressure breathing respirator (Mark-7, Carefusion, USA) in fixed flow mode delivering 48 liters per minute (LPM). Flows of gas were verified with a calibrated mass flow meter (TSI, USA). Gaseous nitric oxide (gNO, obtained at INOmax, Ikaria, USA) at a concentration of 800 ppm delivered at a flow of 12 LPM was titrated into a distal delivery port on the mouth piece connected to the respirator during inspiratory phase only (pressure switch). The Mark 7 respirator was supplied by an air/oxygen blender (Bird Sentry, Carefusion, USA) set to deliver 26% oxygen.
The levels of gNO, NO2, O2 and methemoglobin were monitored during the administration of gNO. […] Inspiratory NO, NO2 and O2 levels were continuously monitored by sampling from the mouthpiece sample port located about 6 millimeters from the mouth of the subject with an AeroNOx (Pulmonox, AB, Canada) NO, NO2 and O2 electrochemical analyzer. Delivery safety was determined by the number of occasions that NO2 exceeded 5 ppm, gNO exceeding 10% variation and O2 dropping below 20% during gNO administration. […]
These parameters were measured continuously during every gNO administration course and for 3.5 hours after the first treatment of the day. Daily serum samples were collected and frozen at −80° C. and the serum […] level was measured using the Griess reagent.
Subjects underwent full pulmonary function tests (PFT), including lung diffusing capacity (DLCO) by a trained technician utilizing a calibrated pulmonary function system (Jaeger MasterScreen, VIASYS Healthcare, USA) on screening and days 2, 8, 12 and 26. […] Effect of gNO on lung function and DLCO was determined by changes from baseline, treatment days and follow up days.
General medical examinations were performed by a pulmonary physician on screening and on days 8, 12 and 26 to obtain oxygenation and vital sign measurements. […] Oxygenation was measured with a pulse oximeter (Rad 57, Masimo Corporation, USA) which was used according to manufacturer's guidelines to measure functional oxygen saturation of arterial hemoglobin (SpO2) and heart rate. […]

[2] = system: five planktonic species of methicillin resistant S. aureus (MRSA); conditions: 1,600 ppm hours of gNO; cited from earlier work
[3] = healthy humans, cited from earlier work
[4] = rats, cited from earlier work
P. aeruginosa = P. aeruginosa on agar; 50-160 ppm gNO, vs medical air; cited from earlier work
[5] = system: chronic, non-healing wound; conditions: topical 200 ppm gNO; within the first three days of treatment; cited from earlier work
[6] = system: bovine respiratory disease; conditions: cattle; intermittent 30 minute exposures of gNO; cited from earlier work

For `[N]=O` [gNO, nitric oxide], which “survival (bactericidal trend)” value (S. aureus) is on record?
Its value is 5-10%.

And the “accumulative effect on SpMet” value ([1]; after five daily treatments for five consecutive days)?
Its value is “no accumulative or lingering effect on SpMet”.

What about the “DLCO, FVC, TLC and RV” value ([1]; during the course of the study) of the same molecule?
The value was “did not change from baseline measurement”.

What about the “airflow as measured by FEV1 and MMEF” value ([1]; during the course of the study) of the same molecule?
Its value is “did not differ from baseline”.

What about the “Ang-2 and Ang-2/Ang-1 ratios” value ([1]; plasma) of the same molecule?
The value was “not affected”.

What about the “cytokine levels of TNF, IL-6, IL-8, IL-10, IL-1b and IL-12p70” value ([1]; plasma, compared to baseline) of the same molecule?
Its value is “unaffected”.

And the “population of planktonic MRSA strains” value [2]?
The value was “reduction in the population of all five MRSA planktonic strains”.

And the “levels of MetHb” value ([3]; inhalation of gNO at 128 ppm for 3 hours)?
The value was > 5%.

What about the “levels of MetHb” value ([3]; inhalation of gNO at 512 ppm for 55 minutes) of the same molecule?
The value was > 5%.

And the mortality ([4]; groups of 10, 300 ppm gNO, 6 continuous hours per day)?
The mortality was “Six of the animals treated with 300 ppm gNO died during the first 1-2 days”.

What about the MetHb levels ([4]; 400 ppm gNO) of the same molecule?
Its MetHb levels is 72.5 percents.

And the MetHb levels ([4]; 500 ppm gNO)?
The MetHb levels was 67 percents.

What about the “survival (bactericidal trend)” value (P. aeruginosa) of the same molecule?
Its value is 5-10%.

And the “presence of biofilm in the wound” value [5]?
Its value is “no longer visibly present”.

What about the “clinical symptoms of bovine respiratory disease” value [6] of the same molecule?
Its value is “decrease the clinical symptoms of bovine respiratory disease”.
